Assay results taken from patent publication US20040232089A1, “Biocidal compounds for treating water” (VANETTA S.p.A., priority 2003, published 2004).

Experiments:
[1] = Hydrolysis test carried out in the dark; type: physicochemical
From the text: From the hydrolysis test carried out in the dark, MNB and MPB appear to be readily degradable at a pH compatible with environmental conditions.

[2] = Photo-degradability under daylight and UV; type: physicochemical; conditions: 10 ppm in drinking water (pH 6,5-7,5)
Method: Similarly, the same behaviour is confirmed when evaluating the photo-degradability under daylight and UV (the irradiation test is carried out on a solution of 10 ppm in drinking water (pH 6,5-7,5)).

[3] = Biodegradability OECD 301 A (92/69/EEC C4-A); conditions: 7 days after the beginning of the test
Method: In fact, based on data available with respect to the most similar compounds to the menadione derivatives disclosed herein, one would expect a degradability in the range of 0% (percentage calculated based on the initial mass expressed in mg/l) typical of menadione (2-methyl-1,4-naphthalenedione) and 17% (assessed after 28 days) typical of menadione sodium bisulphite (which calculation was performed in accordance with the guidelines OECD301 A attached to directive EEC 92/69/EEC C4-A).
Finally biodegradability was also evaluated according to standard 92/69/EEC C4-A. From the data, both MNB and MPB result to have a remarkably better biodegradability than 2-methyl-1,4-naphthalenedione and particularly than MSB.

[4] = From the text: As reminded often, the water solubility is an essential feature for the candidate biocide to be used successfully in the biological control of water.

| SMILES | ½ LIFE (hydrolysis) ([1]; pH 6, 8, in the dark) [h] | ½ LIFE (hydrolysis) ([1]; pH 9, in the dark) [h] | Light exp. Tot Degr. [2] [h] | degradability relative to that of MSB [3] | Sol. in H2O [4] | Light exp. ½ life [2] [h] |
| --- | --- | --- | --- | --- | --- | --- |
| O=C1C=CC(=O)c2c(O)cccc21 [Juglone, 5-hydroxy-1,4-naphthalenedione, reference compound] | >288 | 15 | 48 |  |  |  |
| CC1(S(=O)(=O)O)CC(=O)c2ccccc2C1=O.Cc1cc(C)[nH]c(=O)n1 (centres unmarked) [MPB, menadione dimethylpyrimidinole bisulphite] | 48 | <3 | 48 | eight | 10 gr/l | 10 |
| CC1=CC(=O)c2ccccc2C1=O [Menadione, 2-methyl-1,4-naphthalenedione, reference compound] | 1500 | 550 | >5000 |  | ins. | 1500 |
